Test results as given in US20180282415A1, “Combination of a PD-1 Axis Binding Antagonist and an ALK Inhibitor for Treating ALK-Negative Cancer” (Merck Patent GmbH, priority 2015, published 2018).

Columns and labels:
CT26 colon carcinoma = assay: In vivo tumor efficacy, CT26 model, crizotinib or alectinib with anti-PD-L1 (Example 3); set-up: species or system Balb/c mice
Excerpt: (§1) CT26 colon carcinoma cell line has published mutanome and transcriptome data, with no known ALK fusion events or oncogenic mutations. Castle et al, BMC Genomics, 15:190 (13 Mar. 2014); Castle et al, CAN 11:3722 (11 Jan. 2012).
(§2) Six- to eight-week old female Balb/c or C57BL/6 mice were purchased from The Jackson Laboratories.
CT26 cell lines, anti-PD-L1 antibody and Rat IgG isotypes (IgG2a and IgG2b) were purchased from BioXCell (clones 2A3 and LTF2, respectively) and prepared as described in Example 2 above. […]

[1] = test system: CD3/CD28-stimulated effector cells (T cells from healthy donors' PBMCs); assay: T cell proliferation assay (3H thymidine incorporation), CD3/CD28-stimulated T cells; format: cell-based, human; conditions: for Thymidine incorporation(CPM): log[Agonist]
Excerpt: (§3) Briefly, human cells were isolated from healthy donors' PBMCs by using EasySep™ Human T Cell Enrichment Kit (Stemcell Technologies) according to manufacturer's instruction. […] Culture supernatants were collected on Day 2 or 3 for cytokine analysis. Plates were then harvested on DNA specific filter papers (Perkin Elmer) using Harvester96 (Tomtec Life Sciences). The radiolabeled filters were covered with beta scintillation liquid (Perkin Elmer) and read in Microbeta® counter plates (Perkin Elmer). ^3H Thymidine was pulsed on Day 2 for T cell proliferation assay.

MC38 colon carcinoma [2] = assay: In vivo tumor efficacy, MC38 model, crizotinib with avelumab (Example 5); set-up: species or system C57BL/6 mice; conditions: for Tumor Volume (Mean ± SEM): avelumab 20 mg/kg i.p., crizotinib 40 mg/kg orally QD; for TGI: compared with the isotype control antibody treated group, avelumab 20 mg/kg, crizotinib 40 mg/kg
Description: Avelumab is a fully human IgG1 antibody that recognizes both human and mouse PD-L1. […] Six- to eight-week old female C57BL/6 mice were purchased from The Jackson Laboratories (Farmington, Conn.). Mice were maintained and all animal experiments were conducted according to the protocols approved by the Institutional Animal Care and Use Committee of Rinat, South San Francisco and Worldwide Research and Development (WRD), La Jolla, Pfizer Inc. MC38 colon carcinoma cell line was kindly provided by Dr. Antoni Ribas at UCLA, California. Cells were cultured in DMEM medium supplemented with 10% fetal bovine serum, and 100 I.U./mL penicillin/streptomycin at 37° C. in an atmosphere of 5% CO2 in air, and IMPACT-tested for pathogens at Research Animal Diagnostic Laboratory (RADIL) (Columbia, Mo.). Pathogen-free cells growing in an exponential growth phase were harvested and used for tumor inoculation. […] Human IgG1 was prepared in-house (Lot No. NB123249p192CA110124). […] Body weight was recorded weekly. […] Mice were monitored for tumor growth and body weight changes.

activated T cells = assay: T cell viability, Cell-Titer Glo Luminescent Cell Viability Assay; format: cell-based, human; conditions: for Luciferase RLU (T cell viability): log[Agonist]
Description: as §3, with “instruction. […] Cells were cultured in RPMI 1640 medium supplemented with 10% FCS and 100 I.U./mL penicillin/streptomycin in humidified incubator at 37° C. with 5% CO2.” for “instruction.”, “assay. The impact by sunitinib and axitinib on T cell proliferation and viability were repeated as previously published (FIGS. 1A and 1B).” for “assay.”
Cell viability was measured by Cell-Titer Glo Luminescent Cell Viability Assay® (Promega, Madison). […] Table 4 below provides the Luciferase RLU values reflecting T cell viability for each of the respective inhibitors.

MC38 colon carcinoma [3] = assay: In vivo tumor efficacy, MC38 model, crizotinib with anti-PD-L1 (Example 3); set-up: species or system C57BL/6 mice; conditions: crizotinib 40 mg/kg, anti-mPDL1 10 mg/kg
Description: as §1, §2
MC38 colon carcinoma cell line was kindly provided by Dr. Antoni Ribas at UCLA, California. Cells were cultured in DMEM medium supplemented with 10% fetal bovine serum, and 100 I.U./mL penicillin/streptomycin at 37° C. in an atmosphere of 5% CO2 in air, and IMPACT-tested for pathogens at Research Animal Diagnostic Laboratory (RADIL) (Columbia, Mo.). Pathogen-free cells growing in an exponential growth phase were harvested and used for tumor inoculation.
For the MC38 study, C57BL/6 mice were inoculated subcutaneously in the right lower flank with 0.2×10^6 MC38 colon carcinoma cells. When tumor bearing mice achieved a mean tumor volume of 50 to 150 mm^3, mice were randomly assigned to 1 of 4 treatment groups, n=10.

Molecule: CCc1cc2c(cc1N1CCC(N3CCOCC3)CC1)C(C)(C)c1[nH]c3cc(C#N)ccc3c1C2=O [Alectinib, alectinib]
- Tumor Volume (Mean ± SEM) (CT26 colon carcinoma; Day 7, alectinib study, alectinib 60 mg/kg, anti-mPDL1 10 mg/kg): 119.1 ± 12.5 mm^3
- Tumor Volume (Mean ± SEM) (CT26 colon carcinoma; Day 14, alectinib study, alectinib 60 mg/kg, anti-mPDL1 10 mg/kg): 293.4 ± 54.2 mm^3
- Tumor Volume (Mean ± SEM) (CT26 colon carcinoma; Day 19, alectinib study, alectinib 60 mg/kg, anti-mPDL1 10 mg/kg): 546.8 ± 98.0 mm^3
- Tumor Volume (Mean ± SEM) (CT26 colon carcinoma; Day 24, alectinib study, alectinib 60 mg/kg, anti-mPDL1 10 mg/kg): 1114.2 ± 217.0 mm^3
- Tumor Volume (Mean ± SEM) (CT26 colon carcinoma; Day 27, alectinib study, alectinib 60 mg/kg, anti-mPDL1 10 mg/kg): 1892.5 ± 283.1 mm^3

Molecule: C[C@@H](Oc1cc(-c2cnn(C3CCNCC3)c2)cnc1N)c1c(Cl)ccc(F)c1Cl [crizotinib, 3-[(1R)-1-(2,6-dichloro-3-fluorophenyl)ethoxy]-5-(1-piperidin-4-ylpyrazol-4-yl)pyridin-2-amine]
- Effect on T cell proliferation ([1]; activated T cells, FIG. 1A): did not have adverse effects on T cell proliferation
- Thymidine incorporation(CPM) ([1]; μM: 0): 432360.3 ± 29488.63 CPM
- Thymidine incorporation(CPM) ([1]; μM: 1): 436099.3 ± 34171.33 CPM
- Thymidine incorporation(CPM) ([1]; μM: 2): 270672.7 ± 18298.53 CPM
- Thymidine incorporation(CPM) ([1]; μM: −1): 438641 ± 47103.88 CPM
- Thymidine incorporation(CPM) ([1]; μM: −2): 442995.3 ± 42508.08 CPM
- Thymidine incorporation(CPM) ([1]; μM: −3): 421221.3 ± 24333.6 CPM
- Tumor Volume (Mean ± SEM) (MC38 colon carcinoma [2]; Day 7): 78.1 ± 6.0 mm^3
- Tumor Volume (Mean ± SEM) (MC38 colon carcinoma [2]; Day 14): 169.7 ± 16.3 mm^3
- Tumor Volume (Mean ± SEM) (MC38 colon carcinoma [2]; Day 19): 291.7 ± 26.2 mm^3
- Tumor Volume (Mean ± SEM) (MC38 colon carcinoma [2]; Day 24): 580.5 ± 67.0 mm^3
- Tumor Volume (Mean ± SEM) (MC38 colon carcinoma [2]; Day 27): 836.5 ± 137.8 mm^3
- TGI (MC38 colon carcinoma [2]): 48.5%
- Effect on T cell viability (activated T cells; FIG. 1B): did not result in dose-dependent decreases in T cell viability
- Luciferase RLU (T cell viability) (activated T cells; μM: 0): 94.22 ± 1.814 RLU
- Luciferase RLU (T cell viability) (activated T cells; μM: 1): 91.72 ± 2.354 RLU
- Luciferase RLU (T cell viability) (activated T cells; μM: 2): 64.24 ± 3.748 RLU
- Luciferase RLU (T cell viability) (activated T cells; μM: 3): 1.474 ± 0.1693 RLU
- Luciferase RLU (T cell viability) (activated T cells; μM: −1): 95.6927 ± 1.827 RLU
- Luciferase RLU (T cell viability) (activated T cells; μM: −2): 93.68 ± 1.564 RLU
- Luciferase RLU (T cell viability) (activated T cells; μM: −3): 89.08 ± 2.843 RLU
- Tumor Volume (Mean ± SEM) (MC38 colon carcinoma [3]; Day 7): 78.1 ± 6.0 mm^3
- Tumor Volume (Mean ± SEM) (MC38 colon carcinoma [3]; Day 14): 169.7 ± 16.3 mm^3
- Tumor Volume (Mean ± SEM) (MC38 colon carcinoma [3]; Day 19): 291.7 ± 26.2 mm^3
- Tumor Volume (Mean ± SEM) (MC38 colon carcinoma [3]; Day 24): 580.5 ± 67.0 mm^3
- Tumor Volume (Mean ± SEM) (MC38 colon carcinoma [3]; Day 27): 836.5 ± 137.8 mm^3
- Tumor Volume (Mean ± SEM) (CT26 colon carcinoma; Day 7, crizotinib 5 mg/kg (alone or with anti-mPDL1)): 90.3 ± 8.1 mm^3
- Tumor Volume (Mean ± SEM) (CT26 colon carcinoma; Day 7, crizotinib 20 mg/kg (alone or with anti-mPDL1)): 90.3 ± 8.0 mm^3
- Tumor Volume (Mean ± SEM) (CT26 colon carcinoma; Day 7, crizotinib 40 mg/kg (alone or with anti-mPDL1)): 94.4 ± 7.9 mm^3
- Tumor Volume (Mean ± SEM) (CT26 colon carcinoma; Day 10, crizotinib 5 mg/kg (alone or with anti-mPDL1)): 140.9 ± 18.0 mm^3
- Tumor Volume (Mean ± SEM) (CT26 colon carcinoma; Day 10, crizotinib 20 mg/kg (alone or with anti-mPDL1)): 156.1 ± 21.9 mm^3
- Tumor Volume (Mean ± SEM) (CT26 colon carcinoma; Day 10, crizotinib 40 mg/kg (alone or with anti-mPDL1)): 127.0 ± 9.8 mm^3
- Tumor Volume (Mean ± SEM) (CT26 colon carcinoma; Day 14, crizotinib 5 mg/kg (alone or with anti-mPDL1)): 246.6 ± 54.7 mm^3
- Tumor Volume (Mean ± SEM) (CT26 colon carcinoma; Day 14, crizotinib 20 mg/kg (alone or with anti-mPDL1)): 234.2 ± 49.0 mm^3
- Tumor Volume (Mean ± SEM) (CT26 colon carcinoma; Day 14, crizotinib 40 mg/kg (alone or with anti-mPDL1)): 218.5 ± 31.5 mm^3
- Tumor Volume (Mean ± SEM) (CT26 colon carcinoma; Day 18, crizotinib 5 mg/kg (alone or with anti-mPDL1)): 407.1 ± 122.2 mm^3
- Tumor Volume (Mean ± SEM) (CT26 colon carcinoma; Day 18, crizotinib 20 mg/kg (alone or with anti-mPDL1)): 299.3 ± 67.1 mm^3
- Tumor Volume (Mean ± SEM) (CT26 colon carcinoma; Day 18, crizotinib 40 mg/kg (alone or with anti-mPDL1)): 319.6 ± 47.7 mm^3
- Tumor Volume (Mean ± SEM) (CT26 colon carcinoma; Day 22, crizotinib 5 mg/kg (alone or with anti-mPDL1)): 749.8 ± 220.0 mm^3
- Tumor Volume (Mean ± SEM) (CT26 colon carcinoma; Day 22, crizotinib 20 mg/kg (alone or with anti-mPDL1)): 631.3 ± 158.5 mm^3
- Tumor Volume (Mean ± SEM) (CT26 colon carcinoma; Day 22, crizotinib 40 mg/kg (alone or with anti-mPDL1)): 685.3 ± 101.1 mm^3
- Tumor Volume (Mean ± SEM) (CT26 colon carcinoma; Day 25, crizotinib 5 mg/kg (alone or with anti-mPDL1)): 1161.1 ± 415.4 mm^3
- Tumor Volume (Mean ± SEM) (CT26 colon carcinoma; Day 25, crizotinib 20 mg/kg (alone or with anti-mPDL1)): 934.9 ± 223.8 mm^3
- Tumor Volume (Mean ± SEM) (CT26 colon carcinoma; Day 25, crizotinib 40 mg/kg (alone or with anti-mPDL1)): 1074.5 ± 136.2 mm^3
- Anti-tumor effect in CT26 model (CT26 colon carcinoma; compared to isotype control or single agents): no anti-tumor effects

Molecule: CCN(CC)CCNC(=O)c1c(C)[nH]c(/C=C2\C(=O)Nc3ccc(F)cc32)c1C [Sunitinib, sunitinib]
- Thymidine incorporation(CPM) ([1]; μM: 0): 493570.3 ± 59347.45 CPM
- Thymidine incorporation(CPM) ([1]; μM: 1): 332 ± 105.9733 CPM
- Thymidine incorporation(CPM) ([1]; μM: 2): 117.3333 ± 16.23 CPM
- Thymidine incorporation(CPM) ([1]; μM: 3): 171 ± 25 CPM
- Thymidine incorporation(CPM) ([1]; μM: −1): 468847.7 ± 39073.88 CPM
- Thymidine incorporation(CPM) ([1]; μM: −2): 444679.3 ± 13911.18 CPM
- Thymidine incorporation(CPM) ([1]; μM: −3): 469071 ± 48070.7 CPM
- Luciferase RLU (T cell viability) (activated T cells; μM: 0): 98.24 ± 2.169 RLU
- Luciferase RLU (T cell viability) (activated T cells; μM: 1): 13.95 ± 7.493 RLU
- Luciferase RLU (T cell viability) (activated T cells; μM: 2): 0.8502 ± 0.2596 RLU
- Luciferase RLU (T cell viability) (activated T cells; μM: 3): 1.827 RLU
- Luciferase RLU (T cell viability) (activated T cells; μM: −1): 91.57 ± 2.195 RLU
- Luciferase RLU (T cell viability) (activated T cells; μM: −2): 98.04 ± 2.634 RLU
- Luciferase RLU (T cell viability) (activated T cells; μM: −3): 96.57 ± 1.711 RLU

B1: Avelumab: fully human IgG1 antibody that recognizes both human and mouse PD-L1 (antibody, V domains shown)
VH: EVQLLESGGGLVQPGGSLRLSCAASGFTFSSYIMWVRQAPGKGLEWVSSIYPSGGITFYADKGRFTISRDNSKNTLYLQMNSLRAEDTAVYYCARIKLGTVTTVDYWGQGTLVTVSS
VL: QSALTQPASVSGSPGQSITISCTGTSSDVGGYNYVSWYQQHPGKAPKLMIYDVSNRPSGVSNRFSGSKSGNTASLTISGLQAEDEADYYCSSYTSSSTRVFGTGTKVTVL
- Tumor Volume (Mean ± SEM) (MC38 colon carcinoma [2]; Day 7): 78.3 ± 5.4 mm^3
- Tumor Volume (Mean ± SEM) (MC38 colon carcinoma [2]; Day 14): 145.5 ± 11.0 mm^3
- Tumor Volume (Mean ± SEM) (MC38 colon carcinoma [2]; Day 19): 307.1 ± 25.5 mm^3
- Tumor Volume (Mean ± SEM) (MC38 colon carcinoma [2]; Day 24): 535.0 ± 62.0 mm^3
- Tumor Volume (Mean ± SEM) (MC38 colon carcinoma [2]; Day 27): 817.7 ± 87.2 mm^3
- TGI (MC38 colon carcinoma [2]): 49.7%
